Laboratory results taken from PMC12195740, “Discovery of Novel Imidazothiazole-Based Hydroxamic Acid Derivatives as Potent Indoleamine 2,3-Dioxygenase 1 and Histone Deacetylase 6 Dual Inhibitors” (Molecules, 2025).

Legend:
SW480 cells = assay: Cell viability (MTT) assay, SW480; conditions: Homo sapiens, SW480, 48 h, read-out: Antiproliferative IC50, SW480
Method: Section S 1.3 Cell viability assays
(§1) Cell Bank at the Chinese Academy of Sciences.
(§2) DMEM and FBS were obtained from Gibco-Thermo (BRL Co. Ltd., USA).
(§3) another 48 h. The cells were stained with 10 μl of MTT at incubator for approximately 4 h. The medium was discarded and replaced by 100 mL DMSO. The O.D. value was read at 570/630 nm with a spectrophotometer.

MCF-7 cells = assay: Cell viability (MTT) assay, MCF-7; conditions: Homo sapiens, MCF7, 48 h, read-out: Antiproliferative IC50, MCF-7
Method: Section S 1.3 Cell viability assays
as §1, §2, §3

HDAC1 = HDAC1 (Homo sapiens, UniProt Q13547); assay: HDAC isoform selectivity assay, HDAC1; format: biochemical
[1] = system: Ac-histone H3 (substrate for HDACs 1, 2, and 3); assay: Western blot of Ac-histone H3 in HCT-116 cells; format: cell-based; conditions: HCT-116, 20 μM, 24 h
Method: Since HDACs regulate the acetylation status of histone and nonhistone proteins in cells, the acetylation levels of histone H3 (a known substrate for HDACs 1, 2, and 3) and α-tubulin (a known substrate for HDAC6) are frequently used as markers of cellular HDAC activity. […] HCT-116 cells were incubated with compound 10e (5−20 μM) for 24 h, and the levels of acetylation of histone H3 and α-tubulin were detected by the Western blot. […]
with 75% cold ethanol at 4 °C overnight. After that, fixed cells were washed with PBS. Then, cells were isolated by centrifugation and stained with propidium iodide (KeyGEN BioTECH, China) for 30 min. The samples were measured using flow cytometry and analyzed by Flowjo software.
Section S 1.6 Western blot assay
Total cell lysates from cultured HCT-116 cells after treatment with compound 10e as mentioned earlier were obtained by lysing the cells in ice-cold RIPA buffer with protease and phosphatase inhibitor and stored at -20°C for future use. The protein concentrations were quantified by the Bradford method (Bio-Rad) using a Multimode Varioscan instrument (Thermo Fischer Scientific). […]
The in vivo antitumor activity of compound 10e was evaluated in the mouse colon carcinoma cell line CT-26 in BALB/c mice as described previously. […]

CT26 tumors = assay: In vivo antitumor efficacy, CT26 tumor-bearing BALB/c mice; conditions: 150 mg/kg ip every 3 days for 21 days
Method: After that, fixed cells were washed with PBS. Then, cells were isolated by centrifugation and stained with propidium iodide (KeyGEN BioTECH, China) for 30 min. The samples were measured using flow cytometry and analyzed by Flowjo software.
Section S 1.6 Western blot assay […]
earlier were obtained by lysing the cells in ice-cold RIPA buffer with protease and phosphatase inhibitor and stored at -20°C for future use. The protein concentrations were quantified by the Bradford method (Bio-Rad) using a Multimode Varioscan instrument (Thermo Fischer Scientific). […]
and transferred to a polyvinylidene difluoride (PVDF) membrane (Amersham Biosciences). After the membrane was blocked at room temperature for 2 h in blocking solution, primary antibody was added and incubated at 4°C overnight. Ac-α-tubulin, Ac-histone H3 and GAPDH antibodies were purchased from Imgenex, USA. After three TBST washes, the membrane was incubated with corresponding horseradish peroxidase-labeled secondary antibody (1:2,000) (Santa Cruz) at room temperature for 1 h. Membranes were washed with TBST three times for 15 min and the protein bands were detected with chemiluminescence reagent (Thermo Fischer Scientific). The X-ray films were developed using developer and fixed with fixer solution.
Section S 1.7 In vivo antitumor efficacy […]
line CT-26 in BALB/c mice as described previously. […]

HCT-116 cells = assay: Cell viability (MTT) assay, HCT-116; conditions: Homo sapiens, HCT-116, 48 h, read-out: Antiproliferative IC50, HCT-116
Method: Section S 1.3 Cell viability assays
as §1, §2, §3

Sequence of HDAC1 (Q13547 whole entry, species assumed, canonical isoform): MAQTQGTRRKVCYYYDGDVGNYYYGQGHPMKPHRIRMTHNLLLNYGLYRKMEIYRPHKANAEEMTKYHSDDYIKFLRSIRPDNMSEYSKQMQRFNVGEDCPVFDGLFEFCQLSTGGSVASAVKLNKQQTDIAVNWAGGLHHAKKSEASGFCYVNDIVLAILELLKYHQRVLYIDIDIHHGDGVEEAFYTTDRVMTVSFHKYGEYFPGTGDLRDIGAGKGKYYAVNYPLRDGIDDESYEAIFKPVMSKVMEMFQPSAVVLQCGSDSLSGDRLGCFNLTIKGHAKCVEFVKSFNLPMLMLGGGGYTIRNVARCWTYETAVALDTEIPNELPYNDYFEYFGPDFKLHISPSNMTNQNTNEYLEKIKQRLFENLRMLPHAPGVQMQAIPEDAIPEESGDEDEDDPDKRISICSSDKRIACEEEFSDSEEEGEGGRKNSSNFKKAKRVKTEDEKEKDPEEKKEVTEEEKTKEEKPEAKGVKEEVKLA

O=C(CCCCCCNc1ccc(NC(=O)c2cnc3scc(-c4ccc(Br)cc4)n23)cc1)NO [Compound 10e, 3-(4-Bromophenyl)-N-{4-[(7-(hydroxyamino)-7-oxoheptyl)amino]phenyl}imidazo[2,1-b]thiazole-5-carboxamide]
IC50 (SW480 cells): 23.4 ± 3.86 µM | IC50 (MCF-7 cells): 36.5 ± 5.45 µM | IC50 (HDAC1): 1.08 µM | Ac-histone H3 levels [1]: slight increase | relative tumor volume growth rate (T/C) (CT26 tumors): 38.32% | tumor growth inhibition (TGI) (CT26 tumors): 60.2% | IC50 (HCT-116 cells): 16.4 ± 3.76 µM
